Measured values: patent publication US20120225092A1, “COSMETIC USE OF SKIN CELL AUTOPHAGY ACTIVATORS” (SOCIETE INDUSTRIELLE LIMOUSINE D'APPLICATION BIOLOGIQUE …, priority 2008, published 2012)
Read-outs that look alike come from different tables or passages of the source.

How the values were obtained:
protein DRAM = settings: H2O2 125 μM, relative to control without stress
Protocol: (§1) The protocol is as follows: • Cultivation of cells for 24 hours in a complete culture medium. • Removal of the culture medium and replacement with the non-nutritive culture medium that contains the oxidizing agent H2O2 for 3 hours (different doses of H2O2—125 μM and/or 250 μM—have been tested). • Removal of the oxidizing agent and the non-nutritive culture medium, replacement by a complete culture medium without an oxidizing agent. • Evaluation of the expression of MAP-LC3, the phosphorylated protein p53, or the protein DRAM after cellular recovery. Several recovery times have been selected (0.5 hour, 1 hour, 1.5 hours, or 2 hours of recovery).
It is also possible to evaluate the autophagy of stressed cutaneous cells by visualizing the expression of the protein DRAM by Western Blott.
The evaluation of the expression of DRAM was therefore analyzed under these moderate stress conditions with 125 μM of H2O2 on HaCaT keratinocyte cultures and on normal human keratinocytes. The expression of DRAM is presented in the table below in percentage relative to the control (without stress).

MAP-LC3 [1] = settings: relative to control without stress
Protocol: This study has as its objective to compare the autophagy level of young cells (from donors with a mean age of 26 years) and aged cells (from donors with a mean age of 70 years) that are subjected to the same oxidative and nutritive stresses.
The evaluation of the autophagy level was considered by the analysis of the expression of the protein MAP-LC3 by Western Blott.
The protocol that is put into place is as follows: • Cultures of so-called young or aged cells for 24 hours in the complete culture medium, • Removal of the complete culture medium, replacement with the non-nutritive culture medium that contains the oxidizing agent H2O2 for 3 hours at different doses, • Removal of the oxidizing agent, replacement by the complete culture medium without an oxidizing agent, • Evaluation of the expression of MAP-LC3 after cellular recovery.

[2] = tested on: phosphorylated protein p53; settings: H2O2 125 μM, relative to control without stress
Protocol: as §1
It is also possible to evaluate the autophagy of stressed cutaneous cells by visualizing the expression of the phosphorylated protein p53 by Western Blott.
The evaluation of the expression of the phosphorylated protein p53 has therefore been analyzed under these moderate stress conditions with 125 μM of H2O2 on HaCaT keratinocyte cultures and on normal human keratinocytes. The expression of phosphorylated p53 is presented in the table below in percentage relative to the control (without stress).

MAP-LC3 [3] = tested on: MAP-LC3
Protocol: as §1
It is possible to evaluate the autophagy of stressed cutaneous cells by visualizing the expression of the protein MAP-LC3 by immunofluorescent marking.
The evaluation of the expression MAP-LC3 was analyzed under these moderate stress conditions (125 μM and 250 μM of hydrogen peroxide H2O2) on HaCaT keratinocyte cultures and on normal human keratinocytes. With the immunomarking results being qualitative, several levels of expression of ATG5-12 were defined: […]

OO [H2O2, hydrogen peroxide]
Expression of DRAM (%) (protein DRAM; recovery time 0.5 hour): 120%
Expression of DRAM (%) (protein DRAM; recovery time 1 hour): 180%
Expression of DRAM (%) (protein DRAM; recovery time 1.5 hours): 390%
Expression of DRAM (%) (protein DRAM; recovery time 2 hours): 200%
Expression of MAP-LC3 On Aged Cells (MAP-LC3 [1]; H2O2 125 μM for 3 hours, aged cells (donors mean age 70 years)): 138%
Expression of MAP-LC3 On Young Cells (MAP-LC3 [1]; H2O2 125 μM for 3 hours, young cells (donors mean age 26 years)): 172%
Expression of MAP-LC3 On Aged Cells (MAP-LC3 [1]; H2O2 250 μM for 3 hours, aged cells): 187%
Expression of MAP-LC3 On Young Cells (MAP-LC3 [1]; H2O2 250 μM for 3 hours, young cells): 322%
Expression of MAP-LC3 On Aged Cells (MAP-LC3 [1]; H2O2 400 μM for 3 hours, aged cells): 135%
Expression of MAP-LC3 On Young Cells (MAP-LC3 [1]; H2O2 400 μM for 3 hours, young cells): 168%
Expression of MAP-LC3 On Aged Cells (MAP-LC3 [1]; H2O2 600 μM for 3 hours, aged cells): 96%
Expression of MAP-LC3 On Young Cells (MAP-LC3 [1]; H2O2 600 μM for 3 hours, young cells): 143%
Expression of MAP-LC3 On Aged Cells (MAP-LC3 [1]; H2O2 1000 μM for 3 hours, aged cells): 92%
Expression of MAP-LC3 On Young Cells (MAP-LC3 [1]; H2O2 1000 μM for 3 hours, young cells): 117%
Phosphorylated Expression p53 (%) ([2]; recovery time 0.5 hour): 221%
Phosphorylated Expression p53 (%) ([2]; recovery time 1 hour): 140%
Phosphorylated Expression p53 (%) ([2]; recovery time 2 hours): 128%
Expression of MAP-LC3 (MAP-LC3 [3]; H2O2 125 μM for 3 hours in non-nutritive medium, recovery time 0.5 hour, HaCaT and normal human keratinocytes): ++
Expression of MAP-LC3 (MAP-LC3 [3]; H2O2 125 μM for 3 hours in non-nutritive medium, recovery time 1 hour): ++
Expression of MAP-LC3 (MAP-LC3 [3]; H2O2 125 μM for 3 hours in non-nutritive medium, recovery time 1.5 hours): +++
Expression of MAP-LC3 (MAP-LC3 [3]; H2O2 125 μM for 3 hours in non-nutritive medium, recovery time 2 hours): ++
Expression of MAP-LC3 (MAP-LC3 [3]; H2O2 250 μM for 3 hours in non-nutritive medium, recovery time 0.5 hour): ++
Expression of MAP-LC3 (MAP-LC3 [3]; H2O2 250 μM for 3 hours in non-nutritive medium, recovery time 1 hour): +++
Expression of MAP-LC3 (MAP-LC3 [3]; H2O2 250 μM for 3 hours in non-nutritive medium, recovery time 1.5 hours): ++
Expression of MAP-LC3 (MAP-LC3 [3]; H2O2 250 μM for 3 hours in non-nutritive medium, recovery time 2 hours): +
